Holding throughout (assay type): cell-based
Experiment [1] deals with RPMI-8402 cells (human T cell acute lymphoblastic leukemia cells). As to the kind of experiment: Proliferation assay (alamarBlue) with RPMI-8402 cells. The conditions noted are these: Homo sapiens, read-out: Activity Range: weighted arithmetic mean (AVEw) of normalized fluorescence intensity relative to DMSO basis level 1.0. An excerpt:
(§1) The antiproliferative activities of compounds falling under formula (Ia), (Tb) and (Ic), respectively, were investigated on cells or cell lines originating from a disorder of the haematopoietic system, including the myeloid cell compartment and the lymphoid cell compartment (T-cells and B-cells), the neuroendocrine system, the cervix, the breast, the ovaries, the lung, the gastrointestinal tract, and the mucosal epithelium, as well as from the skin epithelium and from the muscle. To this end, HL-60 cells, NB-4 cells, HH cells, RPMI-8402 cells, TANOUE cells, TT cells, HeLa cells, MDA-MB-231 cells, FU-OV-1 cells, LOU-NH91 cells, 23132/87 cells, CAL-27 cells, BHY cells, SCC-25 cells, A-431 cells, human primary epidermal keratinocytes (HPEK), and C2C12 cells were seeded into 96-well plates suitable for fluorescence assays (CORNING #3598) at following initial cell numbers: 1000 cells per well for HL-60; 1000 cells per well for NB-4; 5000 cells per well for HH; 5000 cells per well for RPMI-8402; 1500 cells per well for TANOUE; 9000 cells per well for TT; 2000 cells per well for HeLa; 3000 cells per well for MDA-MB-231; 3000 cells per well for FU-OV-1; 4000 cells per well for LOU-NH91; 2000 cells per well for 23132/87; 2000 cells per well for CAL-27; 1500 cells per well for BHY; 1500 cells per well for SCC-25; 700 cells per well for A-431; 1000 cells per well for HPEK; 500 cells per well for C2-C12. The cells were treated with compounds at indicated final concentrations (diluted from the 1000× stock-solutions in DMSO to a final DMSO concentration of 0.1% v/v in H2O (Water For Injection, WFI, Fisherscientific #10378939)) or with the empty carrier DMSO at 0.1% v/v as control for 5 days. At day 5 after starting the treatments the cells were subjected to the alamarBlue® Proliferation Assay (Bio-Rad Serotec GmbH, BUF012B) according to the protocol of the manufacturer. The readout was taken with a multi-well plate-reader in the fluorescence mode with applying a filter for excitation at 560 nm (band width 10 nm) and for emission at 590 nm (band width 10 nm). Control treatments for growth inhibition with commercial compounds such as Methotrexate (MTREX) and Resveratrol (RES) were included on every plate. Some of the test compounds of the present invention were obtained and applied as their salts. According cases are indicated in the column “Specification” in Table 30 to Table 62 and by their sum formula in Table 63.
(§2) The assays were performed in duplicate or more replicates of independent single experiments each containing a six-fold replicate for every condition. For every individual plate, the measured fluorescence intensity values of the conditions with compound treatment were normalized against the corresponding equally weighted arithmetic mean of the fluorescence intensity values of the six DMSO treated control wells in order to obtain the relative values to a baseline level of 1.0.
(§3) Two independent outlier analyses were performed according to the methods by Peirce and Chauvenet (Ross, Journal of Engineering Technology 2003, 1-12). Outliers confirmed by at least one of the methods were excluded from the calculations but not more than one value out of six per compound within a single experiment. The weighted arithmetic mean (here abbreviated as AVEw) for each compound was calculated from the normalized values over all independent replicates of the single experiments comprising the six replicates each. The corresponding standard deviation for the weighted arithmetic mean was calculated according to the method described by Bronstein et al. (Bronstein, Semendjajew, Musiol, Muhlig, Taschenbuch der Mathematik, 5th edition 2001 (German), publisher: Verlag Harri Deutsch, Frankfurt am Main and Thun) and was combined with the Gauβ′ error propagation associated with the performed calculation for the normalization. The resulting standard deviation is herein referred to as “combined standard deviation”. […]
(In general: The colour change of resazurin is a common sign of viable cells or microbes.)

Experiment [2] has as its system HL-60 cells (human acute myeloid leukemia cells). As to the kind of experiment: Proliferation assay (alamarBlue) with HL-60 cells. Particulars: Homo sapiens, Table 30, compound at 20 μM, read-out: Activity Range (AVEw, weighted arithmetic mean of normalized fluorescence intensity, DMSO = 1.0).
Text: as §1, §2, §3

The subject of experiment [3] is TANOUE cells (human B cell leukemia cells). The experiment can be described thus: Proliferation assay (alamarBlue) with TANOUE cells. Particulars: Homo sapiens, B-cell, read-out: Activity Range: weighted arithmetic mean (AVEw) of normalized fluorescence intensity relative to DMSO basis level 1.0.
Text: as §1, §2, §3

For experiment [4], the system named is MDA-MB-231 cells (human breast carcinoma cells). The experiment can be described thus: Proliferation assay (alamarBlue) with MDA-MB-231 cells. The conditions noted are these: Homo sapiens, read-out: Activity Range: weighted arithmetic mean (AVEw) of normalized fluorescence intensity relative to DMSO basis level 1.0.
Text: as §1, §2, §3

For experiment [5], the system named is CAL-27 cells (human tongue squamous cell carcinoma cells). The experiment can be described thus: Proliferation assay (alamarBlue) with CAL-27 cells. The conditions noted are these: read-out: Activity Range: weighted arithmetic mean (AVEw) of normalized fluorescence intensity relative to DMSO basis level 1.0.
Text: as §1, §2, §3

In experiment [6] the test system is 23132/87 cells (human gastric adenocarcinoma cells). The experiment can be described thus: Proliferation assay (alamarBlue) with 23132/87 cells. The conditions noted are these: read-out: Activity Range: weighted arithmetic mean (AVEw) of normalized fluorescence intensity relative to DMSO basis level 1.0.
Text: as §1, §2, §3

The subject of experiment [7] is A-431 cells (human epidermoid squamous cell carcinoma cells). The experiment can be described thus: Proliferation assay (alamarBlue) with A-431 cells. The conditions noted are these: Homo sapiens, 20 μM, read-out: Activity Range: weighted arithmetic mean (AVEw) of normalized fluorescence intensity relative to DMSO basis level 1.0.
Text: as §1, §2, §3

For experiment [8], the system named is HH cells (human cutaneous T-cell lymphoma cells). As to the kind of experiment: Proliferation assay (alamarBlue) with HH cells. Particulars: Table 34, compound at 20 μM, read-out: Activity Range (AVEw, weighted arithmetic mean of normalized fluorescence intensity, DMSO = 1.0).
Text: as §1, §2, §3

Experiment [9] relates to NB-4 cells (human acute promyelocytic leukemia cells). As to the kind of experiment: Proliferation assay (alamarBlue) with NB-4 cells. The conditions noted are these: Homo sapiens, Table 32, compound at 20 μM, read-out: Activity Range (AVEw, weighted arithmetic mean of normalized fluorescence intensity, DMSO = 1.0).
Text: as §1, §2, §3

The subject of experiment [10] is SCC-25 cells (human tongue squamous cell carcinoma cells). The experiment can be described thus: Proliferation assay (alamarBlue) with SCC-25 cells. Particulars: Homo sapiens, read-out: Activity Range: weighted arithmetic mean (AVEw) of normalized fluorescence intensity relative to DMSO basis level 1.0.
Text: as §1, §2, §3

In experiment [11] the test system is BHY cells (human oral squamous cell carcinoma cells). The experiment can be described thus: Proliferation assay (alamarBlue) with BHY cells. Particulars: read-out: Activity Range: weighted arithmetic mean (AVEw) of normalized fluorescence intensity relative to DMSO basis level 1.0.
Text: as §1, §2, §3

Experiment [12] has as its system C2C12 cells (murine myoblast cells). The experiment can be described thus: Proliferation assay (alamarBlue) with C2C12 cells. Particulars: Mus musculus, compound at 20 μM, read-out: Activity Range: weighted arithmetic mean (AVEw) of normalized fluorescence intensity, relative to DMSO basis level 1.0.
Text: as §1, §2, §3

Experiment [13] deals with HPEKp cells (human epidermal keratinocyte progenitors, pooled). As to the kind of experiment: Proliferation assay (alamarBlue) with HPEKp cells. The conditions noted are these: compound at 10 μM, read-out: Activity Range: weighted arithmetic mean (AVEw) of normalized fluorescence intensity, relative to DMSO basis level 1.0.
Text: as §1, §2, §3

On to `OC1(c2ccc(Oc3ccc(C45CC6CC(CC(C6)C4)C5)cc3)cc2)COC1` [XPA-0140, 3-(4-(4-((3r,5r,7r)-adamantan-1-yl)phenoxy)phenyl)oxetan-3-ol], for which the activity at 20 µM was in the range of 20 to 40% in experiment [1]; 0 to 20% in experiment [2]; 0 to 20% in experiment [3]; 20 to 40% in [4]; 20 to 40% in experiment [5]; 70 to 80% in experiment [6]. Besides, the activity at 20 µM in experiment [7] lay in the range of 40 to 60%; in [8], 70 to 80%; in experiment [9], 60 to 70%; in [10] it was 20 to 40%; in [11] it was 70 to 80%; in [12], 70 to 80%. Also, the activity at 10 µM in experiment [13] was 0 to 20%.

Consider `CCOC(=O)c1ccc(Oc2ccc(C3CCCCC3)cc2C2CC2)cc1` [XPA-1295, ethyl 4-(4-cyclohexyl-2-cyclopropylphenoxy)benzoate], for which, in [13], the activity at 10 µM is 70 to 80%.

Consider `CCOC(=O)c1ccc(Oc2ccc(C3CCOCC3)cc2)cc1` [XPA-0063, ethyl 4-(4-(tetrahydro-2H-pyran-4-yl)phenoxy)benzoate], for which the activity at 20 µM in experiment [1], in [3] and in experiment [4] was 80 to 90% throughout.

For the compound `COC1(c2ccc(Oc3ccc(C45CC6CC(CC(C6)C4)C5)cc3)cc2)CN(C)C1` [XPA-0238, 3-(4-(4-((3r,5r,7r)-adamantan-1-yl)phenoxy)phenyl)-3-methoxy-1-methylazetidine], the activity at 20 µM in experiment [1], in experiment [2], in [3], in [4], in [5] and in [6] was 0 to 20% in each case. Also, the activity at 20 µM in [7], in experiment [8], in [9], in experiment [10], in experiment [11] and in experiment [12] was 0 to 20% throughout. The activity at 10 µM in experiment [13] was 40 to 60%.

As to `O=Cc1ccc(Oc2ccc(C34CC5CC(CC(C5)C3)C4)cc2)cc1` [XPA-0028, 4-(4-(adamantan-1-yl)phenoxy)benzaldehyde], the activity at 20 µM was 40 to 60% in [1]; 40 to 60% in experiment [2]; 0 to 20% in [3]; 70 to 80% in experiment [4]; 80 to 90% in [7]; 40 to 60% in experiment [9]. Besides, the activity at 20 µM in experiment [10] lay within 80 to 90%; in experiment [12] it was 60 to 70%. Besides, the activity at 10 µM in experiment [13] was in the range of 0 to 20%.

As for `CCOC(=O)c1ccc(Oc2ccc(CCN(C)C)cc2)cc1` [XPA-0060, ethyl 4-(4-(2-(dimethylamino)ethyl)phenoxy)benzoate], the activity at 20 µM is 40 to 60% in [1]; 40 to 60% in experiment [4]; 40 to 60% in experiment [5]; 80 to 90% in experiment [7]; 60 to 70% in [8]; 80 to 90% in [9]. Moreover, the activity at 20 µM in experiment [10] fell in the range of 20 to 40%; in experiment [11], 70 to 80%; in [12], 40 to 60%. For the same compound, the activity at 10 µM in experiment [13] was 20 to 40%.

As for `CCOC(=O)c1ncc(Oc2ccc(C34CC5CC(CC(C5)C3)C4)cc2)cn1` [XPA-1303, ethyl 5-(4-((3r,5r,7r)-adamantan-1-yl)phenoxy)pyrimidine-2-carboxylate], the activity at 20 µM in [1] and in [3] was 80 to 90% throughout.

In the case of `CCOC(=O)c1ccc(Oc2ccc(C3CCCCC3)cc2C2CO2)cc1` (centres unmarked) [XPA-1290, ethyl 4-(4-cyclohexyl-2-(oxiran-2-yl)phenoxy)benzoate], the activity at 20 µM in experiment [3] fell in the range of 80 to 90%; in experiment [4], 70 to 80%. The activity at 10 µM in experiment [13] lay within 0 to 20%.

For `CN1CCC(c2ccc(Oc3ccc(C(=O)O)cc3)cc2)CC1` [XPA-0036, 4-(4-(1-methylpiperidin-4-yl)phenoxy)benzoic acid], in [4], the activity at 20 µM is 80 to 90%.

For the compound `COC1(c2ccc(Oc3ccc(C4CCCCC4)cc3)cc2)COC1` [XPA-0146, 3-(4-(4-cyclohexylphenoxy)phenyl)-3-methoxyoxetane], the activity at 20 µM was in the range of 20 to 40% in experiment [1]; 20 to 40% in experiment [2]; 0 to 20% in [3]; 0 to 20% in experiment [4]; 20 to 40% in [5]; 60 to 70% in [6]. In addition, the values for the activity at 20 µM in experiment [7], in experiment [9] and in [11] were 20 to 40%, 80 to 90% and 70 to 80%, respectively. Also, the activity at 10 µM in experiment [13] lay within 60 to 70%.

Turning to `OCc1ccc(Oc2ccc(C3CCCCC3)cc2)cc1` [XPA-0006, (4-(4-cyclohexylphenoxy)phenyl)methanol], the activity at 20 µM was 60 to 70% in experiment [1]; 80 to 90% in [2]; 60 to 70% in [4]; 70 to 80% in experiment [7]; 80 to 90% in [11]. Also, in experiment [13], the activity at 10 µM was 40 to 60%.

In the case of `C=Cc1cc(C2CCCCC2)ccc1Oc1ccc(C(=O)OCC)cc1` [XPA-1284, ethyl 4-(4-cyclohexyl-2-vinylphenoxy)benzoate], the activity at 20 µM in experiment [1] is 20 to 40%; in experiment [2] it was 0 to 20%; in experiment [3], 0 to 20%; in [4] it was 20 to 40%; in [5] it was 60 to 70%; in experiment [6], 70 to 80%. Further, the activity at 20 µM in [7] lay within 40 to 60%; in [8] it was 60 to 70%; in experiment [9] it was 20 to 40%; in experiment [10], 70 to 80%; in experiment [12], 20 to 40%. The activity at 10 µM in experiment [13] lay within 0 to 20%.
